From patent US9801878B2, “Quinoline derivatives as PDE10A enzyme inhibitors” (H. Lundbeck A/S, priority 2011, dated 2017)

Experiments:
[1] = rats, cited from earlier work
[2] = rats; cited from earlier work
[3] = rats; cited from earlier work; remark: listed apart in the source
PDE10A enzyme = PDE10A enzyme (Homo sapiens (Human), UniProt Q9Y233); assay: PDE10A inhibition assay; assay type: biochemical
Description: Active PDE10A enzyme is prepared in a number of ways for use in PDE assays (Loughney, K. et al. Gene 1999, 234, 109-117; Fujishige, K. et al. Eur J Biochem. 1999, 266, 1118-1127 and Soderling, S. et al. Proc. Natl. Acad. Sci. 1999, 96, 7071-7076). PDE10A can be expressed as full-length proteins or as truncated proteins, as long as they express the catalytic domain. PDE10A can be prepared in different cell types, for example insect cells or E. coli. […]
A PDE10A assay may for example, be performed as follows: The assay is performed in 60 uL samples containing a fixed amount of the relevant PDE enzyme (sufficient to convert 20-25% of the cyclic nucleotide substrate), a buffer (50 mM HEPES7.6; 10 mM MgCl2; 0.02% Tween20), 0.1 mg/ml BSA, 225 pCi of ^3H-labelled cyclic nucleotide substrate, tritium labeled cAMP to a final concentration of 5 nM and varying amounts of inhibitors. […] The beads are allowed to settle for one hr in the dark before the plates are counted in a Wallac 1450 Microbeta counter. The measured signal can be converted to activity relative to an uninhibited control (100%) and IC50 values can be calculated using the Xlfit extension to EXCEL.

PDE10A enzyme, sequence (Q9Y233 716-1055): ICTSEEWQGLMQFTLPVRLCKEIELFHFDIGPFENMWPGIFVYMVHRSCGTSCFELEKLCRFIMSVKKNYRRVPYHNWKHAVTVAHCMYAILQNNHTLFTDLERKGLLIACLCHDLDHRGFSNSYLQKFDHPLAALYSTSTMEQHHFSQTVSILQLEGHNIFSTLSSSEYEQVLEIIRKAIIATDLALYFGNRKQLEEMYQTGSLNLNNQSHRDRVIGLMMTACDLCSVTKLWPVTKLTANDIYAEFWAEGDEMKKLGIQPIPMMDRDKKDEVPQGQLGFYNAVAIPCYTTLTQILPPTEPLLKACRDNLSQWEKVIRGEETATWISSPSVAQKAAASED

Row | IC50 (PDE10A enzyme) | Structure (SMILES) | catalepsy on its own ([1]; alone) | cataleptic effect of the D2 receptor antagonist haloperidol ([1]; with haloperidol) | hyperactivity induced by PCP [2] | reduction of amphetamine induced hyperactivity [3]
1 |  | COc1ccc(Cc2nccc3cc(OC)c(OC)cc23)cc1OC [Papaverine] | did not cause catalepsy on its own | potentiated the cataleptic effect | reduced hyperactivity | insignificant
2 | 7.4 nM | Cc1ncc(C)n2nc(CCc3ccc4ccccc4n3)nc12 [2-[2-(5,8-Dimethyl-[1,2,4]triazolo[1,5-a]pyrazin-2-yl)-ethyl]-quinoline] |  |  |  | 
